Assay results reported in patent US20240158448A1, “MULTIVALENT NANO-'SELF' PEPTIDES AND USES THEREOF” (THE TRUSTEES OF THE UNIVERSITY OF PENNSYLVANIA, priority 2021, published 2024).
Non-standard residues stand in square brackets, D forms with d. Primed or numbered codes have the meaning given here. No end group written: not given here. PEG5′ = linker of 5 PEG units between residues

Experiments:
SIRPα = molecular target: T1, SIRPα (Homo sapiens, UniProt P78324); assay: CD47-Fc Inhibition Assay on THP-1 macrophages; format: binding; conditions: 1 μM or 50 μM peptide, 2 μg/mL CD47-Fc, anti-Fc fluorescence
T1 construct: THP-1 monocytes were PMA differentiated in RPMI for 48 h; endogenous in cells; host or cells: PMA-differentiated THP-1 macrophages
Description: CD47-Fc Inhibition Assay. THP-1 monocytes were PMA differentiated in RPMI for 48 h. The macrophages were washed with RPMI media and then incubated with 1 μM or 50 μM of nano- Self peptides for 1 h at 37° C., 5% CO2, and 95% humidity. After washing, the macrophages were incubated with Human Trustain FcX Fc receptor blocking solution (Biolegend) for 10 min at RT and then incubated with 2 μg/mL CD47-Fc fusion protein (ACRO Biosystems) for 1 h at 37° C., 5% CO2, and 95% humidity. As a negative control, B6H12 was pre-mixed with CD47-Fc at 4° C. on a rotator for 1 h. The macrophages were then washed and incubated with 0.5 μg/mL goat anti-human IgG Fc DyLight 488 (Thermo Fischer) for 1 h at 37° C., 5% CO2, and 95% humidity. Finally, the macrophages were washed, fixed, Hoechst 33342 stained, and imaged as described above.
To determine whether the nS peptides bind to SIRPα, nS-FF and nS-F4 were used as soluble competitive inhibitors of saturable CD47-Fc fusion protein binding to macrophages (FIG. 20). Addition of multivalent nS peptides was followed by Fc-receptor blockade to minimize Fc-driven binding of construct. Afterwards, CD47-Fc was added and then finally anti-Fc fluorescence imaging was performed (FIG. 20, left).

THP-1 macrophages = assay: Peptide inhibition assay (competition with FAM-labeled nS-F on THP-1 macrophages); format: binding, human; conditions: pre-treatment with unlabeled peptide
Description: Peptide inhibition assay. THP-1 monocytes were PMA differentiated in RPMI for 48 hours. […] To measure background internalization of the FAM-labeled peptides, nS-X-FAM was used. To determine the efficacy of the bivalent peptides to inhibit SIRPα binding, nS-X was used. Excess peptides were washed off with PBS and cells were fixed with 4% formaldehyde for 15 minutes at RT, washed with PBS, stained with 1 μg/mL Hoechst 33342, and then washed with PBS again. Fluorescence imaging was performed as described elsewhere herein and quantification was done using ImageJ.

[1] = tested on: mouse J774A.1 macrophages; assay: In vitro phagocytosis assay: opsonized human RBCs engulfed by mouse J774A.1 macrophages; format: cell-based; conditions: saturating / 50 μM peptide
Description: In vitro phagocytosis assay. […] For CD47 blocked RBCs, 5 μg/mL of mouse anti-human CD47 (B6H12; BD Biosciences) were added. Thereafter, RBCs were washed with PBS three times and stained with PKH26 dye (1:800 dilution in PBS; Sigma) for 1 hour at RT with shaking in the dark. RBCs were washed and resuspended in PBS. J774A.1 macrophages were plated for 24 hours in RPMI. For SIRPα blocked J774A.1 macrophages, the same peptide blocking procedure as described elsewhere herein was used with the addition of a positive control using 5 μg/mL rat anti-mouse SIRPα ([…]; BD Biosciences). […] CO2 and 95% humidity. Macrophages were then washed with RPMI three times. Adherent and uninternalized RBCs were lysed with water for 30 seconds followed by immediate replacement with RPMI media. In order to distinguish remaining adherent RBCs from internalized RBCs, opsonized RBCs were stained with AlexaFluor 647 donkey anti-rabbit (binds to rabbit polyclonal opsonin on RBC; Invitrogen) IgG (1:1000) while unopsonized, CD47 blocked RBCs were stained with AlexaFluor 647 donkey anti-mouse (binds to mouse monoclonal anti-CD47 on RBCs; Invitrogen) IgG (1:1000) for 30 minutes. After washing, macrophages were fixed with 4% formaldehyde for 15 minutes at RT, washed with PBS, stained with 1 μg/mL Hoechst 33342, and then washed with PBS again. Fluorescence imaging was performed as described elsewhere herein and quantification was done using ImageJ. At least 200 cells were analyzed and experiments were repeated at least three times.

[2] = tested on: COS-1 (SIRPα negative) cells; assay: Confocal live staining with FAM-labeled peptides, COS-1 cells; format: binding, monkey; conditions: FAM-labeled peptide
Description: SIRPα staining and confocal imaging. THP-1 monocytes were PMA-differentiated in RPMI 1640 for 24 hours. J774A.1, A549, and COS-1 cells were plated for 24 hours in media, respectively. Cells were washed with respective media prior to addition of fluorescent peptides. The peptides were left to incubate for 1 hour at 37 ° C., 5% CO2 and 95% humidity. For fixed cell staining, cells were incubated with 4% formaldehyde (Pierce) for 15 minutes prior to the addition of fluorescent peptides whereas for live cell staining, fixation was done after incubation with the FAM-labeled peptides. Nuclei were stained with 1 μg/mL Hoechst 33342 (Invitrogen). Cells were the washed PBS three times before analysis. Fluorescence imaging of fixed cells was performed using an Olympus IX71 with a digital EMCCD camera (Cascade 512B) and a 40×/0.6 NA objective. […] Quantification was done with ImageJ (NIH).
In order to visualize the uneven binding of the peptides to the surface of the macrophages, a live staining experiment of THP-1, J774A.1, and A549 cells, which all express SIRPα at different levels, was performed with FAM-labeled nS-wt and nS-X and analyzed by confocal microscopy (FIG. 11). […] Fluorescence of nS-X was consistently lower on THP-1 and J774A.1 macrophages relative to nS-wt. […]

Substance | level of inhibition of CD47-Fc binding (SIRPα) | inhibition of monovalent nS-F-FAM binding to macrophages (THP-1 macrophages) | effect on phagocytosis of opsonized RBCs (words) [1] | binding to COS-1 cells [2]
(VTELFREG-PEG5)2-K (VTELFREG[PEG5′]K[PEG5′]GERFLETV; not fully specified; also: bivalent lysine core) [nS-FF, bivalent nS-F linked through PEG5 linkers to a C-terminal Lys] | as inhibitory as anti-CD47 | further decreased |  | 
VTELTREG [nS-wt, 8-amino acid wild type nano-Self peptide from the CD47 loop, C-terminal amide] |  |  | matches anti-CD47 blockade effects | primarily non-specific
